{"source": "patent US7118895B2", "about": "“Process for producing aglycon by using diglycosidase and flavor-improved food containing the aglycon and converting agent to be used in the process” (Amano Enzyme Inc., priority 2000, dated 2006)", "key": {"[1]": {"tested_on": "β-Glucosidase derived from A. niger", "test": "Reactivity toward various isoflavone glycosides (HPLC)", "type": "biochemical, Aspergillus niger", "set-up": "glucoside / aglycon: unit not given here", "details": "55 °C, pH 4.0", "procedure,_shortened": "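Aglycone liberation was measured by reversed-phase HPLC (260 nm, calibration-curve quantitation) after ethanol extraction at 0, 1, 3 and 6 h. Reactions ran at 55° C, pH 4.0 (20 mM acetate), with each glycoside (from 2 mM methanol stock) and 0.75 AU/mL enzyme solution.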"}, "[2]": {"tested_on": "Crude diglycosidase", "test": "Examination of substrate concentration in the conversion into isoflavone aglycons by diglycosidase using soybean materials;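 also: percent of the isoflavone family total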", "type": "biochemical, Penicillium multicolor IAM7153", "procedure,_shortened": "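Reaction at 55° C, shaken, pH 4.0 (20 mM acetate), using crude diglycosidase from a 1.88 AU/mL enzyme solution on soy flour, soymilk, defatted soybean or soy protein concentrate at 2, 5, 10, 20 or 30% (w/v). Isoflavone aglycons quantified by HPLC of ethanol extracts at 0, 1, 3, 6 h.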"}}, "data": [{"smiles": "O=C(O)CC(=O)OC[C@H]1O[C@@H](Oc2cc(O)c3c(=O)c(-c4ccc(O)cc4)coc3c2)[C@H](O)[C@@H](O)[C@@H]1O", "note": "[malonylgenistin, 6″-O-malonylgenistin]", "values": [{"measurement": "aglycon", "setting": "[1]; Reaction time 0 h", "value": 0}, {"measurement": "glucoside", "setting": "[1]; Reaction time 0 h", "value": 100}, {"measurement": "aglycon", "setting": "[1]; Reaction time 1 h", "value": 3.1}, {"measurement": "glucoside", "setting": "[1]; Reaction time 1 h", "value": 96.9}, {"measurement": "aglycon", "setting": "[1]; Reaction time 3 h", "value": 7}, {"measurement": "glucoside", "setting": "[1]; Reaction time 3 h", "value": 93}, {"measurement": "aglycon", "setting": "[1]; Reaction time 6 h", "value": 12.1}, {"measurement": "glucoside", "setting": "[1]; Reaction time 6 h", "value": 87.9}, {"measurement": "Decomposition efficiency: ratio of each glycoside/aglycon within its isoflavone family", "setting": "[2]; concentrated soybean protein, substrate concentration 2%, heat treatment of enzyme no, reaction time 0 h", "value": "not detected"}, {"measurement": "Decomposition efficiency: ratio of each glycoside/aglycon within its isoflavone family", "setting": "[2]; concentrated soybean protein, substrate concentration 2%, heat treatment of enzyme no, reaction time 1 h", "value": "not detected"}, {"measurement": "Decomposition efficiency: ratio of each glycoside/aglycon within its isoflavone family", "setting": "[2]; concentrated soybean protein, substrate concentration 2%, heat treatment of enzyme no, reaction time 3 h", "value": "not detected"}, {"measurement": "Decomposition efficiency: ratio of each glycoside/aglycon within its isoflavone family", "setting": "[2]; concentrated soybean protein, substrate concentration 2%, heat treatment of enzyme no, reaction time 6 h", "value": "not detected"}, {"measurement": "Decomposition efficiency: ratio of each glycoside/aglycon within its isoflavone family", "setting": "[2]; concentrated soybean protein, substrate concentration 2%, heat treatment of enzyme yes, reaction time 6 h", "value": "not detected"}, {"measurement": "Decomposition efficiency: ratio of each glycoside/aglycon within its isoflavone family", "setting": "[2]; concentrated soybean protein, substrate concentration 5%, heat treatment of enzyme no, reaction time 0 h", "value": "not detected"}, {"measurement": "Decomposition efficiency: ratio of each glycoside/aglycon within its isoflavone family", "setting": "[2]; concentrated soybean protein, substrate concentration 5%, heat treatment of enzyme no, reaction time 1 h", "value": "not detected"}, {"measurement": "Decomposition efficiency: ratio of each glycoside/aglycon within its isoflavone family", "setting": "[2]; concentrated soybean protein, substrate concentration 5%, heat treatment of enzyme no, reaction time 3 h", "value": "not detected"}, {"measurement": "Decomposition efficiency: ratio of each glycoside/aglycon within its isoflavone family", "setting": "[2]; concentrated soybean protein, substrate concentration 5%, heat treatment of enzyme no, reaction time 6 h", "value": "not detected"}, {"measurement": "Decomposition efficiency: ratio of each glycoside/aglycon within its isoflavone family", "setting": "[2]; concentrated soybean protein, substrate concentration 5%, heat treatment of enzyme yes, reaction time 6 h", "value": "not detected"}, {"measurement": "Decomposition efficiency: ratio of each glycoside/aglycon within its isoflavone family", "setting": "[2]; concentrated soybean protein, substrate concentration 10%, heat treatment of enzyme no, reaction time 0 h", "value": "not detected"}, {"measurement": "Decomposition efficiency: ratio of each glycoside/aglycon within its isoflavone family", "setting": "[2]; concentrated soybean protein, substrate concentration 10%, heat treatment of enzyme no, reaction time 1 h", "value": "not detected"}, {"measurement": "Decomposition efficiency: ratio of each glycoside/aglycon within its isoflavone family", "setting": "[2]; concentrated soybean protein, substrate concentration 10%, heat treatment of enzyme no, reaction time 3 h", "value": "not detected"}, {"measurement": "Decomposition efficiency: ratio of each glycoside/aglycon within its isoflavone family", "setting": "[2]; concentrated soybean protein, substrate concentration 10%, heat treatment of enzyme no, reaction time 6 h", "value": "not detected"}, {"measurement": "Decomposition efficiency: ratio of each glycoside/aglycon within its isoflavone family", "setting": "[2]; concentrated soybean protein, substrate concentration 10%, heat treatment of enzyme yes, reaction time 6 h", "value": "not detected"}, {"measurement": "Decomposition efficiency: ratio of each glycoside/aglycon within its isoflavone family", "setting": "[2]; concentrated soybean protein, substrate concentration 20%, heat treatment of enzyme no, reaction time 0 h", "value": "not detected"}, {"measurement": "Decomposition efficiency: ratio of each glycoside/aglycon within its isoflavone family", "setting": "[2]; concentrated soybean protein, substrate concentration 20%, heat treatment of enzyme no, reaction time 1 h", "value": "not detected"}, {"measurement": "Decomposition efficiency: ratio of each glycoside/aglycon within its isoflavone family", "setting": "[2]; concentrated soybean protein, substrate concentration 20%, heat treatment of enzyme no, reaction time 3 h", "value": "not detected"}, {"measurement": "Decomposition efficiency: ratio of each glycoside/aglycon within its isoflavone family", "setting": "[2]; concentrated soybean protein, substrate concentration 20%, heat treatment of enzyme no, reaction time 6 h", "value": "not detected"}, {"measurement": "Decomposition efficiency: ratio of each glycoside/aglycon within its isoflavone family", "setting": "[2]; concentrated soybean protein, substrate concentration 20%, heat treatment of enzyme yes, reaction time 6 h", "value": "not detected"}, {"measurement": "Decomposition efficiency: ratio of each glycoside/aglycon within its isoflavone family", "setting": "[2]; concentrated soybean protein, substrate concentration 30%, heat treatment of enzyme no, reaction time 0 h", "value": "not detected"}, {"measurement": "Decomposition efficiency: ratio of each glycoside/aglycon within its isoflavone family", "setting": "[2]; concentrated soybean protein, substrate concentration 30%, heat treatment of enzyme no, reaction time 1 h", "value": "not detected"}, {"measurement": "Decomposition efficiency: ratio of each glycoside/aglycon within its isoflavone family", "setting": "[2]; concentrated soybean protein, substrate concentration 30%, heat treatment of enzyme no, reaction time 3 h", "value": "not detected"}, {"measurement": "Decomposition efficiency: ratio of each glycoside/aglycon within its isoflavone family", "setting": "[2]; concentrated soybean protein, substrate concentration 30%, heat treatment of enzyme no, reaction time 6 h", "value": "not detected"}, {"measurement": "Decomposition efficiency: ratio of each glycoside/aglycon within its isoflavone family", "setting": "[2]; concentrated soybean protein, substrate concentration 30%, heat treatment of enzyme yes, reaction time 6 h", "value": "not detected"}, {"measurement": "Decomposition efficiency: ratio of each glycoside/aglycon within its isoflavone family", "setting": "[2]; roasted soy flour, substrate concentration 2%, heat treatment of enzyme no, reaction time 0 h", "value": "not detected"}, {"measurement": "Decomposition efficiency: ratio of each glycoside/aglycon within its isoflavone family", "setting": "[2]; roasted soy flour, substrate concentration 2%, heat treatment of enzyme no, reaction time 1 h", "value": "not detected"}, {"measurement": "Decomposition efficiency: ratio of each glycoside/aglycon within its isoflavone family", "setting": "[2]; roasted soy flour, substrate concentration 2%, heat treatment of enzyme no, reaction time 3 h", "value": "not detected"}, {"measurement": "Decomposition efficiency: ratio of each glycoside/aglycon within its isoflavone family", "setting": "[2]; roasted soy flour, substrate concentration 2%, heat treatment of enzyme no, reaction time 6 h", "value": "not detected"}, {"measurement": "Decomposition efficiency: ratio of each glycoside/aglycon within its isoflavone family", "setting": "[2]; roasted soy flour, substrate concentration 2%, heat treatment of enzyme yes, reaction time 6 h", "value": "not detected"}, {"measurement": "Decomposition efficiency: ratio of each glycoside/aglycon within its isoflavone family", "setting": "[2]; roasted soy flour, substrate concentration 5%, heat treatment of enzyme no, reaction time 0 h", "value": "not detected"}, {"measurement": "Decomposition efficiency: ratio of each glycoside/aglycon within its isoflavone family", "setting": "[2]; roasted soy flour, substrate concentration 5%, heat treatment of enzyme no, reaction time 1 h", "value": "not detected"}, {"measurement": "Decomposition efficiency: ratio of each glycoside/aglycon within its isoflavone family", "setting": "[2]; roasted soy flour, substrate concentration 5%, heat treatment of enzyme no, reaction time 3 h", "value": "not detected"}, {"measurement": "Decomposition efficiency: ratio of each glycoside/aglycon within its isoflavone family", "setting": "[2]; roasted soy flour, substrate concentration 5%, heat treatment of enzyme no, reaction time 6 h", "value": "not detected"}, {"measurement": "Decomposition efficiency: ratio of each glycoside/aglycon within its isoflavone family", "setting": "[2]; roasted soy flour, substrate concentration 5%, heat treatment of enzyme yes, reaction time 6 h", "value": "not detected"}, {"measurement": "Decomposition efficiency: ratio of each glycoside/aglycon within its isoflavone family", "setting": "[2]; roasted soy flour, substrate concentration 10%, heat treatment of enzyme no, reaction time 0 h", "value": "not detected"}, {"measurement": "Decomposition efficiency: ratio of each glycoside/aglycon within its isoflavone family", "setting": "[2]; roasted soy flour, substrate concentration 10%, heat treatment of enzyme no, reaction time 1 h", "value": "not detected"}, {"measurement": "Decomposition efficiency: ratio of each glycoside/aglycon within its isoflavone family", "setting": "[2]; roasted soy flour, substrate concentration 10%, heat treatment of enzyme no, reaction time 3 h", "value": "not detected"}, {"measurement": "Decomposition efficiency: ratio of each glycoside/aglycon within its isoflavone family", "setting": "[2]; roasted soy flour, substrate concentration 10%, heat treatment of enzyme no, reaction time 6 h", "value": "not detected"}, {"measurement": "Decomposition efficiency: ratio of each glycoside/aglycon within its isoflavone family", "setting": "[2]; roasted soy flour, substrate concentration 10%, heat treatment of enzyme yes, reaction time 6 h", "value": "not detected"}, {"measurement": "Decomposition efficiency: ratio of each glycoside/aglycon within its isoflavone family", "setting": "[2]; roasted soy flour, substrate concentration 20%, heat treatment of enzyme no, reaction time 0 h", "value": "not detected"}]}]}
